US20220193084A1, “INHIBITORS OF EZH2 AND METHODS OF USE THEREOF” (Epizyme, Inc., priority 2015, published 2022)

Key:
[1] = human, in vivo
Protocol: (§1) Table 10 describes a Phase 1 clinical trial design (sponsor protocol no.: E7438-G000-001, ClinicalTrials.gov identifier: NCT01897571). The study population included subjects with relapsed or refractory solid tumors or B-cell lymphoma. Subjects received a 3+3 dose escalation in expansion cohorts receiving 800 mg BID and 1600 mg BID, respectively, or a cohort for ascertaining the effect of food on dosing at 400 mg BID. The primary endpoint was a determination of recommended phase II dose (RP2D)/maximum tolerated dose (MTD). Secondary endpoints included safety, pharmacokinetics (PK), pharmacodynamics (PD) and tumor response, assessed every 8 wks.

[2] = test system: relapsed or refractory solid tumors or B-cell lymphoma; assay: Phase 1 clinical trial (NCT01897571): tumor response; assay type: in vivo, human
Protocol: as §1

relapsed refractory NHL = assay: Phase 2 NHL trial: best response by molecular variant; assay type: in vivo, human
Protocol: Archive and cell-free tumor DNA collected from relapsed refractory NHL patients phase I and II trials, were tested in the NGS panel as described in Examples 1 and 2. The content of the panel included molecular variants occurring in NHL at ≥5% frequency. (Tables 15 and 17-19, FIGS. 19A-22C). […] Through correction of the background error by molecular bar coding the NHL specific plasma select panel was able to accurately detect mutations down to 0.1% allelic frequency (FIG. 13A and FIG. 13B). Translocations of ALK were detected in a cell-free DNA validation test set with samples from the phase I patients at a tumor purity of as low as 0.1% (FIG. 14). Sequencing of phase 1 NHL patients utilizing the 62 gene NHL NGS panel was completed for 10 archive tumor samples and 15 ctDNA samples (Table 15, FIG. 19A and FIG. 19B). In addition, microsatellite instability was monitored through the analysis of 5 distinct markers (BAT-25, BAT-26, MONO-27, NR-21 and NR-24), leading to one patient in the phase I trial being identified as microsatellite unstable based on the five tested markers (Table 15 and FIG. 19A and FIG. 19B, columns A16 and C16). Sequencing and an initial analysis of samples from patients in a phase 2 trial was completed with 58 archive tumor and 72 ctDNA baseline patient samples, wherein 48 of the archive tumor patients and 68 of the ctDNA patients were sequenced with reported response data.

Oral bioavailability = conditions: in vivo
[3] = phase 2, archive tumor, 6 patients with MYD88 (273P) mutations
[4] = phase 2, archive tumor, 9 patients with EZH2 mutations
[5] = phase 2, archive tumor, 13 patients with STAT6 mutations
[6] = phase 2, ctDNA variant allele frequencies of 0.1%, 6 patients with MYD88 (273P) mutations
[7] = phase 2, ctDNA variant allele frequencies of 0.1%, 11 patients with EZH2 mutations
[8] = phase 2, ctDNA variant allele frequencies of 0.1%, 14 patients with STAT6 mutations
[9] = phase 2, ctDNA variant allele frequencies of 0.1%, 18 patients with MYC mutations
[10] = phase 2, ctDNA variant allele frequencies of 1%, 5 patients with MYD88 (273P) mutations
[11] = phase 2, ctDNA variant allele frequencies of 1%, 8 patients with EZH2 mutations
[12] = phase 2, ctDNA variant allele frequencies of 1%, 10 patients with STAT6 mutations

CCN(c1cc(-c2ccc(CN3CCOCC3)cc2)cc(C(=O)NCc2c(C)cc(C)[nH]c2=O)c1C)C1CCOCC1 [tazemetostat]
3: Anemia, All Treatment-Related, All Grades [1] | Anxiety, All Events, All Grades [1] | Depression, All Events, All Grades [1] | Hypertension, All Events, All Grades [1] | Insomnia, All Events, All Grades [1] | Muscle spasms, All Treatment-Related, All Grades [1] | Neutropenia, All Events, All Grades [1] | Neutropenia, All Treatment-Related, All Grades [1] | Night sweats, All Events, All Grades [1] | Night sweats, All Treatment-Related, All Grades [1] | Peripheral edema, All Events, All Grades [1] | best response CR, number of patients (relapsed refractory NHL; [3]) | best response SD, number of patients (relapsed refractory NHL; [4]) | best response PD, number of patients (relapsed refractory NHL; [5]) | best response PD, number of patients (relapsed refractory NHL; [7]) | best response PD, number of patients (relapsed refractory NHL; [8]) | best response SD, number of patients (relapsed refractory NHL; [9]) | best response PD, number of patients (relapsed refractory NHL; phase 2, ctDNA variant allele frequencies of 1%, 5 patients with MYC mutations) | best response PD, number of patients (relapsed refractory NHL; [11])
demonstrates clinical activity: clinical activity as a monotherapy ([2]; relapsed or refractory DLBCL (GCB and non-GCB), FL and MZL)
7: Constipation, All Events, All Grades [1] | Thrombocytopenia, All Treatment-Related, All Grades [1]
acceptable: Safety profile as monotherapy [1]
Progressive Disease: Response (relapsed refractory NHL; Sample ID 10012004, STAT6 419D > G, vaf 42%, DLBCL GCB EZH2 Wild-type) | Response (relapsed refractory NHL; Sample ID 20022008, STAT6 371C > R, vaf 35%, FL EZH2 Wild-type) | Response (relapsed refractory NHL; Sample ID 30022001, STAT6 419D > H, vaf 42%, DLBCL GCB EZH2 Wild-type)
9: Decreased appetite, All Events, All Grades [1] | best response PD, number of patients (relapsed refractory NHL; [9])
23: Asthenia, All Events, All Grades [1]
5: Anemia, All Events, All Grades [1] | Dry skin, All Events, All Grades [1] | Dysgeusia, All Events, All Grades [1] | Dysgeusia, All Treatment-Related, All Grades [1] | Dyspnea, All Events, All Grades [1] | Muscle spasms, All Events, All Grades [1] | Vomiting, All Treatment-Related, All Grades [1] | best response PD, number of patients (relapsed refractory NHL; phase 2, archive tumor, 7 patients with MYC mutations) | best response PR, number of patients (relapsed refractory NHL; [5]) | best response PR, number of patients (relapsed refractory NHL; [7]) | best response PR, number of patients (relapsed refractory NHL; [8])
6: Diarrhea, All Events, All Grades [1] | Vomiting, All Events, All Grades [1] | best response SD, number of patients (relapsed refractory NHL; [8])
lack of response: response associated with MYC translocations (relapsed refractory NHL; phase 2, archive tumor, 2 MYC translocations) | response associated with MYC translocations (relapsed refractory NHL; phase 2, ctDNA variant allele frequencies of 0.1%, 5 MYC translocations) | response associated with MYC translocations (relapsed refractory NHL; phase 2, ctDNA variant allele frequencies of 1%, 5 MYC translocations)
4: Abdominal pain, All Events, All Grades [1] | Decreased appetite, All Treatment-Related, All Grades [1] | Diarrhea, All Treatment-Related, All Grades [1] | Dry skin, All Treatment-Related, All Grades [1] | Hypophosphatemia, All Events, All Grades [1] | best response PR, number of patients (relapsed refractory NHL; [4]) | best response SD, number of patients (relapsed refractory NHL; [5]) | best response PR, number of patients (relapsed refractory NHL; [11]) | best response PR, number of patients (relapsed refractory NHL; [12]) | best response SD, number of patients (relapsed refractory NHL; [12])
8: Nausea, All Events, All Grades [1] | Nausea, All Treatment-Related, All Grades [1] | Thrombocytopenia, All Events, All Grades [1]
0: Abdominal pain, All Treatment-Related, Grade ≥3 [1] | Anemia, All Events, Grade ≥3 [1] | Anemia, All Treatment-Related, Grade ≥3 [1] | Anxiety, All Events, Grade ≥3 [1] | Anxiety, All Treatment-Related, Grade ≥3 [1] | Asthenia, All Events, Grade ≥3 [1] | Asthenia, All Treatment-Related, Grade ≥3 [1] | Constipation, All Events, Grade ≥3 [1] | Constipation, All Treatment-Related, Grade ≥3 [1] | Decreased appetite, All Treatment-Related, Grade ≥3 [1] | Depression, All Treatment-Related, Grade ≥3 [1] | Diarrhea, All Events, Grade ≥3 [1] | Diarrhea, All Treatment-Related, Grade ≥3 [1] | Dry skin, All Events, Grade ≥3 [1] | Dry skin, All Treatment-Related, Grade ≥3 [1] | Dysgeusia, All Events, Grade ≥3 [1] | Dysgeusia, All Treatment-Related, Grade ≥3 [1] | Dyspnea, All Events, Grade ≥3 [1] | Dyspnea, All Treatment-Related, All Grades [1] | Dyspnea, All Treatment-Related, Grade ≥3 [1] | Hypophosphatemia, All Events, Grade ≥3 [1] | Hypophosphatemia, All Treatment-Related, Grade ≥3 [1] | Insomnia, All Events, Grade ≥3 [1] | Insomnia, All Treatment-Related, All Grades [1] | Insomnia, All Treatment-Related, Grade ≥3 [1] | Muscle spasms, All Events, Grade ≥3 [1] | Muscle spasms, All Treatment-Related, Grade ≥3 [1] | Nausea, All Events, Grade ≥3 [1] | Nausea, All Treatment-Related, Grade ≥3 [1] | Night sweats, All Events, Grade ≥3 [1] | Night sweats, All Treatment-Related, Grade ≥3 [1] | Peripheral edema, All Events, Grade ≥3 [1] | Peripheral edema, All Treatment-Related, Grade ≥3 [1] | Vomiting, All Events, Grade ≥3 [1] | Vomiting, All Treatment-Related, Grade ≥3 [1]
Partial Response: Response (relapsed refractory NHL; Sample ID 10032007, STAT6 419D > G, vaf 36%, FL EZH2 Wild-type) | Response (relapsed refractory NHL; Sample ID 10042005, STAT6 419D > G, vaf 19%, FL EZH2 Wild-type) | Response (relapsed refractory NHL; Sample ID 10052001, STAT6 419D > G, vaf 24%, FL EZH2 Mutant) | Response (relapsed refractory NHL; Sample ID 20022001, STAT6 377E > K, vaf 33%, FL EZH2 Mutant) | Response (relapsed refractory NHL; Sample ID 20042003, STAT6 419D > A, vaf 39%, DLBCL GCB EZH2 Mutant)
Complete Response: Response (relapsed refractory NHL; Sample ID 20052004, STAT6 419D > A, vaf 30%, DLBCL GCB EZH2 Wild-type)
13: Asthenia, All Treatment-Related, All Grades [1]
1: Abdominal pain, All Events, Grade ≥3 [1] | Abdominal pain, All Treatment-Related, All Grades [1] | Anxiety, All Treatment-Related, All Grades [1] | Decreased appetite, All Events, Grade ≥3 [1] | Depression, All Treatment-Related, All Grades [1] | Hepatocellular injury, All Events, Grade ≥3 [1] | Hepatocellular injury, All Treatment-Related, All Grades [1] | Hepatocellular injury, All Treatment-Related, Grade ≥3 [1] | Hypertension, All Events, Grade ≥3 [1] | Hypertension, All Treatment-Related, Grade ≥3 [1] | Hypophosphatemia, All Treatment-Related, All Grades [1] | Neutropenia, All Events, Grade ≥3 [1] | Neutropenia, All Treatment-Related, Grade ≥3 [1] | Thrombocytopenia, All Treatment-Related, Grade ≥3 [1] | best response PD, number of patients (relapsed refractory NHL; [3]) | best response PR, number of patients (relapsed refractory NHL; [3]) | best response CR, number of patients (relapsed refractory NHL; [5]) | best response PR, number of patients (relapsed refractory NHL; [6]) | best response SD, number of patients (relapsed refractory NHL; [6]) | best response PR, number of patients (relapsed refractory NHL; [10]) | best response SD, number of patients (relapsed refractory NHL; [11])
2: Constipation, All Treatment-Related, All Grades [1] | Depression, All Events, Grade ≥3 [1] | Hepatocellular injury, All Events, All Grades [1] | Hypertension, All Treatment-Related, All Grades [1] | Peripheral edema, All Treatment-Related, All Grades [1] | Thrombocytopenia, All Events, Grade ≥3 [1] | best response PD, number of patients (relapsed refractory NHL; [4]) | best response CR, number of patients (relapsed refractory NHL; [6]) | best response PD, number of patients (relapsed refractory NHL; [6]) | best response SD, number of patients (relapsed refractory NHL; [7]) | best response PR, number of patients (relapsed refractory NHL; [9]) | best response CR, number of patients (relapsed refractory NHL; [10]) | best response PD, number of patients (relapsed refractory NHL; [10]) | best response PD, number of patients (relapsed refractory NHL; [12])
orally bioavailable: oral bioavailability (Oral bioavailability)
Stable Disease: Response (relapsed refractory NHL; Sample ID 10062002, STAT6 419D > G, vaf 29%, DLBCL GCB EZH2 Wild-type) | Response (relapsed refractory NHL; Sample ID 20012001, STAT6 286Q > R, vaf 24%, DLBCL GCB EZH2 Wild-type) | Response (relapsed refractory NHL; Sample ID 20012003, STAT6 417N > S, vaf 27%, DLBCL GCB EZH2 Wild-type) | Response (relapsed refractory NHL; Sample ID 50022001, STAT6 419D > Y, vaf 39%, DLBCL non-GCB)
demonstrated clinical responses: clinical responses in phase 1 clinical trial ([2]; both EZH2 mutant and wild type patients)
